We go through 13 compounds from US11591367B2, “Melanocortin-1-receptor agonists” (DSM IP ASSETS B.V., priority 2016, dated 2023).

Residues, ends and D or L forms follow the SMILES beside them.

The first test has as its system Skin samples (from abdominal plastic surgery). The test is described as follows: Ex-vivo skin pigmentation trial (melanin amount, Fontana-Masson stain). In kind it is cell-based. The following applies: 4 μl/200 μM of active applied topically daily; melanin amount at day 6; % increase versus untreated. The method, then: Skin samples (from abdominal plastic surgery) have been cut in pieces of approx. 8×3 mm (Øx thickness) and were cultured up to day 6 in an air-liquid interface in a perforated ring of stainless steel in contact with a culture medium (modified Williams'E medium), the culture medium has been renewed every three days. Six skin specimens have been used for each treatment. Each test sample (4 μl/200 μM of active) has been applied topically on top of each piece after gentle cleaning of the surface with a cotton pad followed by covering with a 6 ø mm delivery membrane, which procedure has been repeated daily. After 6 days of incubation, the melanin amount was assessed on twelve skin sections for each treatment by staining using a modified Fontana-Masson stain. The amount of melanin present in each slide has been evaluated by estimating the intensity and the distribution of grey tone: 8-bit grey-scale images for each treatment have been captured at the microscope. Then the colour space of the images have been transformed from RGB into L*a*b* images and each pixel of the picture has been evaluated according to its L* values. The obtained results have been transformed in ranks of L* and then normalized on the ratio between the selected area and the area of the slide. The result is indicated as % increase versus untreated at day 6.
In the case of `N=C(N)NCCC[C@H](NC(=O)[C@@H](Cc1ccccc1)NC(=O)[C@H](Cc1c[nH]cn1)NC(=O)CNC(=O)c1ccccc1)C(=O)N[C@@H](Cc1c[nH]c2ccccc12)C(N)=O` [(I-a), Bz-Gly-His-D-Phe-Arg-Trp-NH2 *2TFA] (HELM PEPTIDE1{[O=C(c1ccccc1)[*:2]].G.H.[dF].R.W.[am]}$$$$V2.0), the “skin pigmentation increase versus untreated” value is “+18%”.
`CCCN(CCC)C(=O)[C@@H](Cc1c[nH]c2ccccc12)NC(=O)[C@H](CCCNC(=N)N)NC(=O)[C@@H](Cc1ccccc1)NC(=O)[C@H](Cc1c[nH]cn1)NC(=O)CNC(=O)c1ccccc1` [(I-d), Bz-Gly-His-D-Phe-Arg-D-Trp-N(Propyl)2 *2TFA] (HELM PEPTIDE1{[O=C(c1ccccc1)[*:2]].G.H.[dF].R.[dW].[CCCN(CCC)[*:1]]}$$$$V2.0): the “skin pigmentation increase versus untreated” value is reported as “+21%”.

The target of the next test is T1, human MC1 receptor (Homo sapiens, UniProt Q01726).
T1 construct: expressed in transfected cells; host or cells: Chinese Hamster Ovary (CHO) cells
T1 sequence (Q01726 whole entry): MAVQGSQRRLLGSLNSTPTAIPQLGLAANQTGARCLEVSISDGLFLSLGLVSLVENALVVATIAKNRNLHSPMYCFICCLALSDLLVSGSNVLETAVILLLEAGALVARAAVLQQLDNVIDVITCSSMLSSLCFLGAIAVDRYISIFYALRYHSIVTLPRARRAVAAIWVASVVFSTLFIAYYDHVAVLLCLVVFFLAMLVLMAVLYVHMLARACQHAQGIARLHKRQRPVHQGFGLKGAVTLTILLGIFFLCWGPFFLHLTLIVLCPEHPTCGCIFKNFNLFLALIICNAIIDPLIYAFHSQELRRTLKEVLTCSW
Briefly: Human MC1 receptor cAMP HTRF functional assay (MC1R stimulation). In kind it is cell-based.
Details: not given
The method, then:
Human MC1 Receptor Using cAMP HTRF Functional Assay:
Twenty seven (27) compounds were tested for agonist activity at the human MC1 receptor using cAMP HTRF (homogeneous time-resolved fluorescence) assays at eight (8) concentrations and in duplicate.
On the day of experimentation, compounds were tested at several concentrations in duplicate wells (n=2) to obtain a dose-response curve and an estimated EC50 value. Values obtained for the reference compound were compared to historical values obtained from the same receptor and used to validate the experimental session. For replicate determinations, the maximum variability tolerated in the test was of +/−20% around the average of the replicates.
Assay: After cultivation Chinese Hamster Ovary (CHO) cells were detached and incubated at a specific cell density in assay buffer. At this stage the CHO cells express the human MC1R at their surface. Agonist compounds were added at determined concentration and incubated for 30 min. Cells were lysed in detection buffer in order to extract cAMP. The amount of cAMP within the cells correlates with GPCR-activity, meaning that in this assay it correlates with MC1R-activity. cAMP was detected in a competitive HTRF assay for binding to an anti-cAMP-antibody.
On to `CCCN(CCC)C(=O)[C@H](Cc1c[nH]c2ccccc12)NC(=O)[C@H](CCCNC(=N)N)NC(=O)[C@@H](Cc1ccccc1)NC(=O)[C@@H](Cc1c[nH]cn1)NC(=O)CNC(=O)c1ccccc1` [Compound R1, Bz-Gly-D-His-D-Phe-Arg-Trp-N(Propyl)2 *2TFA, reference compound] (HELM PEPTIDE1{[O=C(c1ccccc1)[*:2]].G.[dH].[dF].R.W.[CCCN(CCC)[*:1]]}$$$$V2.0), for which the concentration giving a half-maximal response (EC50) is 36 nM.
The compound `CCCN(CCC)C(=O)[C@H](Cc1c[nH]c2ccccc12)NC(=O)[C@H](CCCNC(=N)N)NC(=O)[C@H](Cc1ccccc1)NC(=O)[C@H](Cc1c[nH]cn1)NC(=O)CNC(=O)c1ccccc1` [Compound R2, Bz-Gly-His-Phe-Arg-Trp-N(Propyl)2 *2TFA, reference compound] (HELM PEPTIDE1{[O=C(c1ccccc1)[*:2]].G.H.F.R.W.[CCCN(CCC)[*:1]]}$$$$V2.0) gave an EC50 of 51.4 nM.
Regarding `CCCN(CCC)C(=O)[C@H](Cc1c[nH]c2ccccc12)NC(=O)[C@@H](CCCNC(=N)N)NC(=O)[C@@H](Cc1ccccc1)NC(=O)[C@H](Cc1c[nH]cn1)NC(=O)CNC(=O)c1ccccc1` [Compound R3, Bz-Gly-His-D-Phe-D-Arg-Trp-N(Propyl)2 *2TFA, reference compound] (HELM PEPTIDE1{[O=C(c1ccccc1)[*:2]].G.H.[dF].[dR].W.[CCCN(CCC)[*:1]]}$$$$V2.0), the concentration for a half-maximal effect (EC50) was found to be 70.1 nM.

Still in this test, the particulars now being: agonist activity; CHO cells expressing human MC1R; 30 min incubation; 8 concentrations in duplicate; read-out: EC50 [nM], MC1R stimulation assay.
For `N=C(N)NCCC[C@H](NC(=O)[C@@H](Cc1ccccc1)NC(=O)[C@H](Cc1c[nH]cn1)NC(=O)CNC(=O)c1ccccc1)C(=O)N[C@@H](Cc1c[nH]c2ccccc12)C(N)=O` [(I-a), Bz-Gly-His-D-Phe-Arg-Trp-NH2 *2TFA] (HELM PEPTIDE1{[O=C(c1ccccc1)[*:2]].G.H.[dF].R.W.[am]}$$$$V2.0), the EC50 came to 0.041 nM.
As for `N=C(N)NCCC[C@H](NC(=O)[C@@H](Cc1ccccc1)NC(=O)[C@H](Cc1c[nH]cn1)NC(=O)CNC(=O)c1ccccc1)C(=O)N[C@H](Cc1ccc2ccccc2c1)C(N)=O` [(I-b), Bz-Gly-His-D-Phe-Arg-D-2-NaphAla-NH2 *2TFA] (HELM PEPTIDE1{[O=C(c1ccccc1)[*:2]].G.H.[dF].R.[O=C([C@@H](Cc1ccc2ccccc2c1)N[*:1])[*:2]].[am]}$$$$V2.0), the EC50 stood at 0.25 nM.
As for `N=C(N)NCCC[C@H](NC(=O)[C@@H](Cc1ccccc1)NC(=O)[C@H](Cc1c[nH]cn1)NC(=O)CNC(=O)c1ccccc1)C(=O)N[C@@H](Cc1ccc2ccccc2c1)C(N)=O` [(I-c), Bz-Gly-His-D-Phe-Arg-L-2-NaphAla-NH2 *2TFA] (HELM PEPTIDE1{[O=C(c1ccccc1)[*:2]].G.H.[dF].R.[O=C([C@H](Cc1ccc2ccccc2c1)N[*:1])[*:2]].[am]}$$$$V2.0), the 50% effective concentration (EC50) was 0.11 nM.
Turning to `CCCN(CCC)C(=O)[C@@H](Cc1c[nH]c2ccccc12)NC(=O)[C@H](CCCNC(=N)N)NC(=O)[C@@H](Cc1ccccc1)NC(=O)[C@H](Cc1c[nH]cn1)NC(=O)CNC(=O)c1ccccc1` [(I-d), Bz-Gly-His-D-Phe-Arg-D-Trp-N(Propyl)2 *2TFA] (HELM PEPTIDE1{[O=C(c1ccccc1)[*:2]].G.H.[dF].R.[dW].[CCCN(CCC)[*:1]]}$$$$V2.0), the EC50 was 0.42 nM.
The same measure, in the same setting: the value for `CCCN(CCC)C(=O)[C@H](Cc1c[nH]c2ccccc12)NC(=O)[C@H](CCCNC(=N)N)NC(=O)[C@@H](Cc1ccccc1)NC(=O)[C@H](Cc1c[nH]cn1)NC(=O)CNC(=O)c1ccccc1` [(I-e), Bz-Gly-His-D-Phe-Arg-Trp-N(Propyl)2 *2TFA] (HELM PEPTIDE1{[O=C(c1ccccc1)[*:2]].G.H.[dF].R.W.[CCCN(CCC)[*:1]]}$$$$V2.0) was 0.88 nM.
Consider `CCCCCCCCNC(=O)[C@H](Cc1c[nH]c2ccccc12)NC(=O)[C@H](CCCNC(=N)N)NC(=O)[C@@H](Cc1ccccc1)NC(=O)[C@H](Cc1c[nH]cn1)NC(=O)CNC(=O)c1ccccc1` [(I-f), Bz-Gly-His-D-Phe-Arg-Trp-NHOctyl *2TFA] (HELM PEPTIDE1{[O=C(c1ccccc1)[*:2]].G.H.[dF].R.W.[CCCCCCCCN[*:1]]}$$$$V2.0), for which the EC50 is 1.06 nM.
Take `N=C(N)NCCC[C@H](NC(=O)[C@@H](Cc1ccccc1)NC(=O)[C@H](Cc1c[nH]cn1)NC(=O)CNC(=O)c1ccccc1)C(=O)N[C@H](Cc1ccccc1)C(N)=O` [(I-g), Bz-Gly-His-D-Phe-Arg-D-Phe-NH2 *2TFA] (HELM PEPTIDE1{[O=C(c1ccccc1)[*:2]].G.H.[dF].R.[dF].[am]}$$$$V2.0): the EC50 came to 1.79 nM.
Turning to `NCC[C@H](NC(=O)[C@@H](Cc1ccccc1)NC(=O)[C@H](Cc1c[nH]cn1)NC(=O)CNC(=O)c1ccccc1)C(=O)N[C@@H](Cc1c[nH]c2ccccc12)C(N)=O` [(I-h), Bz-Gly-His-D-Phe-Dab-Trp-NH2 *2TFA] (HELM PEPTIDE1{[O=C(c1ccccc1)[*:2]].G.H.[dF].[Dab].W.[am]}$$$$V2.0), the EC50 amounted to 7.51 nM.
As to `N=C(N)NCCC[C@H](NC(=O)[C@@H](Cc1ccccc1)NC(=O)[C@H](Cc1cnc[nH]1)NC(=O)CNC(=O)c1ccccc1)C(=O)N(CCc1c[nH]c2ccccc12)CC(N)=O` [(I-i), Bz-Gly-His-D-Phe-Arg-(N-IndEt)Gly-NH2 *2TFA] (HELM PEPTIDE1{[O=C(c1ccccc1)[*:2]].G.H.[dF].R.[O=C(CN(CCc1c[nH]c2ccccc12)[*:1])[*:2]].[am]}$$$$V2.0), the EC50 came out at 4.4 nM.
For the compound `N=C(N)NCCC[C@H](NC(=O)[C@@H](Cc1ccccc1)NC(=O)[C@H](Cc1c[nH]cn1)NC(=O)CNC(=O)c1ccccc1)C(=O)NCCc1c[nH]c2ccccc12` [Compound R4, Bz-Gly-His-D-Phe-Arg-Tryptamide *2TFA, reference compound] (HELM PEPTIDE1{[O=C(c1ccccc1)[*:2]].G.H.[dF].R.[c1ccc2c(CCN[*:1])c[nH]c2c1]}$$$$V2.0), the half-maximal effective concentration (EC50) was 42.9 nM.

Usually EC50 stands for the concentration giving half of the maximal effect.
